Calls of active or inactive are those of the source. The calls are words filed in the database; no cut-off is given here.
Columns and labels:
Escherichia coli = assay: Antibacterial activity against Escherichia coli; Inactive; format: functional, organism-based
[1] = Compound was tested for its inhibitory activity against DAla-DAla Ligase at 1 mM; No activity; set-up: species or system Enterococcus faecalis
Staphylococcus aureus = assay: Antibacterial activity against Staphylococcus aureus; Inactive; format: functional, organism-based
[2] = Compound was tested for its inhibitory activity against DAla-DAla Ligase; set-up: species or system Enterococcus faecalis

Row | Compound | Activity (Escherichia coli) | IC50 [1] | Activity (Staphylococcus aureus) | IC50 [2] [µM]
1 | C[C@@H](N)[C@]1(O)CNC1=O | inactive | Not Active | inactive | 
2 | CC(N)P(=O)(O)O (stereo not drawn) |  |  |  | 930
3 | N[C@@H]1CONC1=O [CYCLOSERINE] |  |  |  | 250
4 | C[C@@H](N)[C@@]1(O)CNC1=O | inactive | Not Active | inactive | 

From ChEMBL document CHEMBL1124319, “Synthesis of an analogue of tabtoxinine as a potential inhibitor of D-alanine:D-alanine ligase (ADP forming)” (J Med Chem, 1989)
